In ChEMBL document CHEMBL5543108, “Structure-based design and synthesis of BML284 derivatives: A novel class of colchicine-site noncovalent tubulin degradation agents” (Eur J Med Chem, 2024):
The source made the active and inactive calls. No cut-off for these calls is given here.

Tests used:
A2780/Taxol [1] = assay: Induction of cell cycle arrest in human A2780T cells assessed as accumulation of cells at G2/M phase at 300 nM measured after 24 hrs by propidium iodide staining based analysis (reference value: 24.13%); type: functional
A2780S [2] = assay: Induction of cell cycle arrest in human A2780S cells assessed as accumulation of cells at G0/G1 phase at 30 nM measured after 24 hrs by propidium iodide staining based analysis (reference value: 51.71%); type: functional
Tubulin (Homo sapiens) [3] = target: T1, Tubulin (Homo sapiens) (UniProt P68371+Q9H4B7+P0DPH7+P68366+Q13509+Q71U36+P04350+Q3ZCM7+P07437+P68363+Q9BQE3+Q6PEY2+Q13885+Q9BVA1+Q9BUF5); assay: Induction of tubulin degradation in human HeLa cells measured after 24 hrs by immunoblot analysis; type: cell-based; settings: dose <= 50.0 µM
[4] = Tmax in male Sprague-Dawley rat at 10 mg/kg, iv; type: ADME, organism-based; settings: in vivo
A2780/Taxol [5] = assay: Induction of cell cycle arrest in human A2780T cells assessed as accumulation of cells at G2/M phase at 30 nM measured after 24 hrs by propidium iodide staining based analysis (reference value: 24.13%); type: functional
A2780S [6] = assay: Induction of cell cycle arrest in human A2780S cells assessed as accumulation of cells at G2/M phase at 10 nM measured after 24 hrs by propidium iodide staining based analysis (reference value: 18.43%); type: functional
Tubulin (Homo sapiens) [7] = target: T1, Tubulin (Homo sapiens); assay: Induction of tubulin degradation in human HeLa cells at 1 uM measured after 24 hrs by immunoblot analysis; type: cell-based
A2780S [8] = assay: Induction of cell cycle arrest in human A2780S cells assessed as accumulation of cells at S phase at 3 nM measured after 24 hrs by propidium iodide staining based analysis (reference value: 29.85%); type: functional
[9] = Toxicity in mouse xenografted with human A2780T cells assessed as effect on body weight at 10 to 30 mg/kg, iv measured upto 18 days; type: organism-based, A2780/Taxol; settings: in vivo, 432 h, dose 10-30 mg/kg, time < 18 day
A2780/Taxol [10] = assay: Induction of cell cycle arrest in human A2780T cells assessed as accumulation of cells at S phase at 30 nM measured after 24 hrs by propidium iodide staining based analysis (reference value: 29.73%); type: functional
[11] = Bioavailability in male Sprague-Dawley rat at 10 mg/kg, iv; type: ADME, organism-based; settings: in vivo
A2780/Taxol [12] = assay: Induction of cell cycle arrest in human A2780T cells assessed as accumulation of cells at G2/M phase at 100 nM measured after 24 hrs by propidium iodide staining based analysis (reference value: 24.13%); type: functional
A2780S [13] = assay: Induction of cell cycle arrest in human A2780S cells assessed as accumulation of cells at S phase at 10 nM measured after 24 hrs by propidium iodide staining based analysis (reference value: 29.85%); type: functional
[14] = Selectivity ratio of IC50 for human A2780T cells to IC50 for human A2780S
A2780S [15] = assay: Induction of cell cycle arrest in human A2780S cells assessed as accumulation of cells at G0/G1 phase at 3 nM measured after 24 hrs by propidium iodide staining based analysis (reference value: 51.71%); type: functional
A2780/Taxol [16] = assay: Induction of cell cycle arrest in human A2780T cells assessed as accumulation of cells at S phase at 100 nM measured after 24 hrs by propidium iodide staining based analysis (reference value: 29.73%); type: functional
[17] = Clearance in male Sprague-Dawley rat at 10 mg/kg, po; type: ADME, organism-based; settings: in vivo
A2780S [18] = assay: Induction of cell cycle arrest in human A2780S cells assessed as accumulation of cells at S phase at 300 nM measured after 24 hrs by propidium iodide staining based analysis (reference value: 29.85%); type: functional
MCF7 = assay: cells; settings: Homo sapiens, MCF7, 72 h
Description: Antiproliferative activity against human MCF7 cells assessed as reduction in cell viability measured after 72 hrs

A2780S [19] = assay: Induction of cell cycle arrest in human A2780S cells assessed as accumulation of cells at G2/M phase at 100 nM measured after 24 hrs by propidium iodide staining based analysis (reference value: 18.43%); type: functional
[20] = AUC (0 to t) in male Sprague-Dawley rat at 10 mg/kg, po; type: ADME, organism-based; settings: in vivo
A2780S [21] = assay: Induction of apoptosis in human A2780S cells assessed as total number of late apoptotic cells at 100 nM measured after 48 hrs by Annexin-V-FITC and PI staining based flow cytometry analysis (reference value: 3.42%); type: functional
A2780S [22] = assay: Induction of cell cycle arrest in human A2780S cells assessed as accumulation of cells at S phase at 30 nM measured after 24 hrs by propidium iodide staining based analysis (reference value: 29.85%); type: functional
A549/TR = assay: Antiproliferative activity against paclitaxel resistant human A549T cells assessed as reduction in cell viability measured after 72 hrs; type: functional, cell-based
Tubulin (Homo sapiens) [23] = target: T1, Tubulin (Homo sapiens); assay: Inhibition of tubulin polymerization (unknown origin) preincubated for 5 mins with compound followed by GTP addition and measured upto 40 mins; type: protein-complex assay; settings: dose 5-10 µM, time <= 45.0 min
HCT-116 = assay: cells; settings: Homo sapiens, HCT-116, 72 h
Description: Antiproliferative activity against human HCT-116 cells assessed as reduction in cell viability measured after 72 hrs

A2780S [24] = assay: Induction of cell cycle arrest in human A2780S cells assessed as accumulation of cells at S phase at 100 nM measured after 24 hrs by propidium iodide staining based analysis (reference value: 29.85%); type: functional
A2780/Taxol [25] = assay: Antiproliferative activity against human A2780T cells assessed as reduction in cell viability measured after 72 hrs; type: functional, cell-based
[26] = Clearance in male Sprague-Dawley rat at 10 mg/kg, iv; type: ADME, organism-based; settings: in vivo
A2780S [27] = assay: Induction of apoptosis in human A2780S cells assessed as total number of late apoptotic cells at 300 nM measured after 48 hrs by Annexin-V-FITC and PI staining based flow cytometry analysis (reference value: 3.42%); type: functional
[28] = Toxicity in mouse xenografted with human A2780S cells assessed as effect on body weight at 10 to 30 mg/kg, iv measured upto 12 days; type: organism-based; settings: in vivo, 288 h, dose 10-30 mg/kg, time < 12 day
A2780S [29] = assay: Induction of cell cycle arrest in human A2780S cells assessed as accumulation of cells at G0/G1 phase at 100 nM measured after 24 hrs by propidium iodide staining based analysis (reference value: 51.71%); type: functional
A2780S [30] = assay: Antitumor activity against human A2780S cells xenografted in mouse model assessed as tumor growth inhibition at 10 mg/kg, iv administered every two days for 12 days relative to control; type: functional; settings: 288 h, time 12 day, read-out: TGI
A2780/Taxol [31] = assay: Induction of cell cycle arrest in human A2780T cells assessed as accumulation of cells at G0/G1 phase at 10 nM measured after 24 hrs by propidium iodide staining based analysis (reference value: 46.141%); type: functional
[32] = Toxicity in mouse xenografted with human A2780T cells assessed as side effects at 10 to 30 mg/kg, iv measured upto 18 days; type: organism-based, A2780/Taxol; settings: in vivo, 432 h, dose 10-30 mg/kg, time < 18 day
K562 = assay: Antiproliferative activity against human K562 cells assessed as reduction in cell viability measured after 72 hrs; type: functional, cell-based; settings: K562, 72 h

## COc1cccc(-c2cc(NCc3ccc4[nH]ccc4c3)nc(N)n2)c1
A2780/Taxol [1]
  Activity: 83.98%
A2780S [2]
  Activity: 48.16%
Tubulin (Homo sapiens) [3]
  Activity: Dose-Dependent Effect
[4]
  Tmax: 4.8 min
A2780/Taxol [5]
  Activity: 20%
A2780S [6]
  Activity: 22.16%
Tubulin (Homo sapiens) [7]
  Activity: Active
A2780S [8]
  Activity: 29.35%
[9]
  Activity: Non-Toxic
A2780/Taxol [10]
  Activity: 35.74%
[11]
  bioavailability: 10.5%
A2780/Taxol [12]
  Activity: 83.16%
A2780S [13]
  Activity: 29.27%
[14]
  Ratio IC50: 0.89
A2780S [15]
  Activity: 47.48%
A2780/Taxol [16]
  Activity: 9.12%
[17]
  CL/F: 314 mL/min/kg
A2780S [18]
  Activity: 16.35%
MCF7
  IC50: 20 nM
A2780S [19]
  Activity: 42.46%
[20]
  AUC(0-t): 447 ng·h/mL
A2780S [21]
  Activity: 14.43%
A2780S [22]
  Activity: 28.02%
A549/TR
  IC50: 37 nM
Tubulin (Homo sapiens) [23]
  inhibition: Dose-Dependent Effect
HCT-116
  IC50: 30 nM
A2780S [24]
  Activity: 37.17%
A2780/Taxol [25]
  IC50: 16 nM
[26]
  clearance: 42.5 mL/min/kg
A2780S [27]
  Activity: 15.57%
[28]
  Activity: Non-Toxic
A2780S [29]
  Activity: 20.38%
A2780S [30]
  inhibition in vivo at 10 mg/kg: 45.3%
A2780/Taxol [31]
  Activity: 46.48%
[32]
  Activity: Toxic
K562
  IC50: 30 nM
